Patent US12247033B2, “Triazole-substituted imidazo[1,2-a]pyrimidines as cGAS inhibitors” (GlaxoSmithKline Intellectual Property Development Limited, priority 2022, dated 2025)
Counter-ions that a name gives are not always drawn.

How the values were obtained:
CGAS = CGAS whole blood cytokine release assay (384-well, BacMam stimulation, IP-10 by cytometric bead array); type: cell-based; settings: Homo sapiens, 6 h; read-out: hWB pXC50 (converted)
Experimental: Blood collection: Blood was collected in a tube containing 10% Sodium Heparin (5 ml/45 ml blood final).
Protocol for CGAS Whole Blood Cytokine Release Assay: Compounds serial diluted at 1:3 were provided at 150 nL per well, in a 384 well polypropylene microplate (cat. 781280; Greiner Bio-One, Frickenhausen, Germany). 5 μL of PBS/20% Null BacMam was dispensed to all wells except for column 18 on a Multidrop Combi (Thermo Scientific, Waltham, MA). 5 uL of PBS was dispensed into column 18. The Bravo (Agilent, Santa Clara, CA) was used to transfer 45 uL of donor derived blood into the compound plates. The Bravo protocol mixed the blood and compound/PBS 5 times. The plates were incubated at 37° C., 5% CO2, for 6 hours. At the 6 hour mark the plates were removed and centrifuged for 10 minutes at 3000 RPM. 3 uL of supernatant was transferred from the plate to a 384 well NBS microplate (cat. 4513; Corning Life Sciences, Corning, NY). These plates were sealed with adhesive foil and stored in a −80 freezer until ready for analysis.
For cytokine detection, Human IP-10 BD cytometric bead array (CBA) beads (BD Biosciences, Franklin Lakes, NJ) were used. Capture bead solution was prepared by performing a 1:50 dilution of the IP-10 capture bead stock solution in BD diluent for serum/plasma (cat. 51-9003991 BD Biosciences, Franklin Lakes, NJ). 2 μL of this solution was added per well to the assay microplates which were then sealed with adhesive foil and incubated at room temperature for 2 h in the dark. Detection reagent was further prepared by performing a 1:50 dilution of the detection reagent stock solution. 2 μL of detection reagent was added per well and microplates were sealed with adhesive foil and incubated at room temperature in the dark for 1 h. After the 1 h incubation 3 uL of BD CBA wash buffer was added per well of the microplates. Data were acquired on an iQue Screener flow cytometer. The iQue used fluorescence detection to quantify the inhibition of IP-10 present in the sample wells. A sip time of 1 second per sample was used. The blue laser with excitation of 488 nm and emission filters 585/40 nm were used to capture the mean and median of IP-10 with the detector in logarithmic mode (FL2-H).
All data analysis was carried out in IDBS ActivityBase XE.

human CGAS (157-522) = human CGAS (157-522) (Homo sapiens, UniProt Q8N884); experiment: biochemical;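 further: biochemical enzyme reaction, 2′3′-cGAMP product measured by RapidFire mass spectrometry (MRM) normalised to c-di-UMP internal standard, inhibition of product formation relative to high and low control wells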
Sequence of human CGAS (157-522) (Q8N884 157-522): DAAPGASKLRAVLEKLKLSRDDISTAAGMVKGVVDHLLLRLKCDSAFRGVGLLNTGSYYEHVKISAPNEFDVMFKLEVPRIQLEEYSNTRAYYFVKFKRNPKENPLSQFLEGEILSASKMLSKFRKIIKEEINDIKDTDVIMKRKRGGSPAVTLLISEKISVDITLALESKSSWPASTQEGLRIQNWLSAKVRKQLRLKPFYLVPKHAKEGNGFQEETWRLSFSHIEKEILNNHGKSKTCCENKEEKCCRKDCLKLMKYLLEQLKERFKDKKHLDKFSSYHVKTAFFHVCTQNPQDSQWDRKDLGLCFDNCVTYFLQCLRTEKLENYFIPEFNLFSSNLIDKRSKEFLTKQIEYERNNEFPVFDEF

Row | IC50 (CGAS) | IC50 (human CGAS (157-522)) | Compound
1 | 794 nM | 6.31 nM | FC(F)(F)c1ccn2c(-c3cnc[nH]3)c(-c3nc(C(F)(F)F)n[nH]3)nc2n1 [Example 3, 5-[3-(1H-imidazol-5-yl)-7-(trifluoromethyl)imidazo[1,2-a]pyrimidin-2-yl]-3-(trifluoromethyl)-1H-1,2,4-triazole]
2 | 63.1 nM | 3.98 nM | FC(F)c1n[nH]c(-c2nc3ncc(Cl)cn3c2-c2c[nH]cn2)n1 [Example 4, 5-[6-chloro-3-(1H-imidazol-4-yl)imidazo[1,2-a]pyrimidin-2-yl]-3-(difluoromethyl)-1H-1,2,4-triazole]
3 | 200 nM | 2.51 nM | Fc1cnc2nc(-c3nc(C(F)F)n[nH]3)c(-c3c[nH]cn3)n2c1 [Example 5, 3-(difluoromethyl)-5-[6-fluoro-3-(1H-imidazol-4-yl)imidazo[1,2-a]pyrimidin-2-yl]-1H-1,2,4-triazole]
4 | 501 nM | 3.98 nM | OCC(F)(F)c1ccn2c(-c3cnc[nH]3)c(-c3nc(C(F)(F)F)n[nH]3)nc2n1 [Example 6, 2,2-difluoro-2-[3-(1H-imidazol-5-yl)-2-[3-(trifluoromethyl)-1H-1,2,4-triazol-5-yl]imidazo[1,2-a]pyrimidin-7-yl]ethan-1-ol]
5 | 1580 nM | 6.31 nM | FC(F)(F)c1n[nH]c(-c2nc3nc(Cl)ccn3c2-c2cnc[nH]2)n1 [Example 7, 5-[7-chloro-3-(1H-imidazol-5-yl)imidazo[1,2-a]pyrimidin-2-yl]-3-(trifluoromethyl)-1H-1,2,4-triazole, trifluoroacetic acid salt]
6 | 200 nM | 3.16 nM | FC(F)c1ccn2c(-c3cnc[nH]3)c(-c3nc(C(F)F)n[nH]3)nc2n1 [Example 8, 3-(difluoromethyl)-5-[7-(difluoromethyl)-3-(1H-imidazol-5-yl)imidazo[1,2-a]pyrimidin-2-yl]-1H-1,2,4-triazole]
7 | 126 nM | 6.31 nM | FC(F)(F)c1n[nH]c(-c2nc3nc4c(cn3c2-c2c[nH]cn2)COC4)n1 [Example 10, 12-(1H-imidazol-4-yl)-11-[3-(trifluoromethyl)-1H-1,2,4-triazol-5-yl]-5-oxa-1,8,10-triazatricyclo[7.3.0.0^3, ^7] dodeca-2,7,9,11-tetraene, 0.2 trifluoroacetic acid salt]
8 | 1000 nM | 10 nM | CC(O)c1ccn2c(-c3cnc[nH]3)c(-c3nc(C(F)(F)F)n[nH]3)nc2n1 (centres unmarked) [Example 13, 1-[3-(1H-imidazol-5-yl)-2-[3-(trifluoromethyl)-1H-1,2,4-triazol-5-yl]imidazo[1,2-a]pyrimidin-7-yl]ethan-1-ol]
9 | 63.1 nM | 10 nM | CC(=O)c1ccn2c(-c3cnc[nH]3)c(-c3nc(C(F)(F)F)n[nH]3)nc2n1 [Example 14, 1-[3-(1H-imidazol-5-yl)-2-[3-(trifluoromethyl)-1H-1,2,4-triazol-5-yl]imidazo[1,2-a]pyrimidin-7-yl]ethan-1-one]
10 | 3160 nM | 3.98 nM | FC(F)(F)c1n[nH]c(-c2nc3ncc(C4CCCC4)cn3c2-c2cnc[nH]2)n1 [Example 16, 5-[6-cyclopentyl-3-(1H-imidazol-5-yl)imidazo[1,2-a]pyrimidin-2-yl]-3-(trifluoromethyl)-1H-1,2,4-triazole, trifluoroacetic acid salt]
11 | 398 nM | 6.31 nM | COCC(F)(F)c1ccn2c(-c3cnc[nH]3)c(-c3nc(C(F)(F)F)n[nH]3)nc2n1 [Example 19, 5-[7-(1,1-difluoro-2-methoxyethyl)-3-(1H-imidazol-5-yl)imidazo[1,2-a]pyrimidin-2-yl]-3-(trifluoromethyl)-1H-1,2,4-triazole]
12 | 631 nM | 5.01 nM | CSc1ccn2c(-c3cnc[nH]3)c(-c3nc(C(F)(F)F)n[nH]3)nc2n1 [Example 21, 5-[3-(1H-imidazol-5-yl)-7-(methylsulfanyl)imidazo[1,2-a]pyrimidin-2-yl]-3-(trifluoromethyl)-1H-1,2,4-triazole]
13 | 7940 nM | 25.1 nM | CS(=O)(=O)c1cnc2nc(-c3nc(C(F)(F)F)n[nH]3)c(-c3cnc[nH]3)n2c1 [Example 22, 5-[3-(1H-imidazol-5-yl)-6-methanesulfonylimidazo[1,2-a]pyrimidin-2-yl]-3-(trifluoromethyl)-1H-1,2,4-triazole]
14 | 5010 nM | 2000 nM | O=C(O)CCOC(=O)OCn1cnc(-c2c(-c3nc(C(F)(F)F)nn3COC(=O)OCCC(=O)O)nc3ncccn23)c1 [Example 31, 3-({[(4-{2-[1-({[(2-carboxyethoxy)carbonyl]oxy}methyl)-3-(trifluoromethyl)-1H-1,2,4-triazol-5-yl]imidazo[1,2-a]pyrimidin-3-yl}-1H-imidazol-1-yl)methoxy]carbonyl}oxy)propanoic acid, trifluoroacetic acid salt]
15 | 501 nM | 316 nM | O=C(O)CCOC(=O)OCn1nc(C(F)(F)F)nc1-c1nc2ncccn2c1-c1cnc[nH]1 [Example 33, 3-{[({5-[3-(1H-imidazol-5-yl)imidazo[1,2-a]pyrimidin-2-yl]-3-(trifluoromethyl)-1H-1,2,4-triazol-1-yl}methoxy)carbonyl]oxy}propanoic acid, 2 trifluoroacetic acid salt]
16 | 1000 nM | 7.94 nM | Fc1cnc2nc(-c3nc(C(F)(F)F)n[nH]3)c(-c3cn[nH]c3)n2c1 [Example 38, 5-[6-fluoro-3-(1H-pyrazol-4-yl)imidazo[1,2-a]pyrimidin-2-yl]-3-(trifluoromethyl)-1H-1,2,4-triazole]
17 | 79.4 nM | 3.16 nM | FC(F)c1n[nH]c(-c2nc3ncccn3c2-c2cnc[nH]2)n1 [Example 50, 3-(difluoromethyl)-5-[3-(1H-imidazol-5-yl)imidazo[1,2-a]pyrimidin-2-yl]-1H-1,2,4-triazole]
18 | 1000 nM | 7.94 nM | CC(C)c1ccn2c(-c3cnc[nH]3)c(-c3nc(C(F)(F)F)n[nH]3)nc2n1 [Example 55, 5-[3-(1H-imidazol-5-yl)-7-(propan-2-yl)imidazo[1,2-a]pyrimidin-2-yl]-3-(trifluoromethyl)-1H-1,2,4-triazole]
19 | 63.1 nM | 5.01 nM | Brc1n[nH]c(-c2nc3nc4c(cn3c2-c2cnc[nH]2)CCO4)n1 [Example 57, 11-(3-bromo-1H-1,2,4-triazol-5-yl)-12-(1H-imidazol-5-yl)-6-oxa-1,8,10-triazatricyclo[7.3.0.0^3,^7]dodeca-2,7,9,11-tetraene]
20 | 316 nM | 10 nM | COc1cnc2nc(-c3nc(C(F)(F)F)n[nH]3)c(-c3cnc[nH]3)n2c1 [Example 58, 5-[3-(1H-imidazol-5-yl)-6-methoxyimidazo[1,2-a]pyrimidin-2-yl]-3-(trifluoromethyl)-1H-1,2,4-triazole]
21 | 398 nM | 12.6 nM | OCc1cnc2nc(-c3nc(C(F)(F)F)n[nH]3)c(-c3cnc[nH]3)n2c1 [Example 61, [3-(1H-imidazol-5-yl)-2-[3-(trifluoromethyl)-1H-1,2,4-triazol-5-yl]imidazo[1,2-a]pyrimidin-6-yl]methanol]
22 | 794 nM | 6.31 nM | FC(F)(F)c1n[nH]c(-c2nc3nc4c(cn3c2-c2cnc[nH]2)CNC4)n1 [Example 63, 12-(1H-imidazol-5-yl)-11-[3-(trifluoromethyl)-1H-1,2,4-triazol-5-yl]-1,5,8,10-tetraazatricyclo[7.3.0.0^3,^7]dodeca-2,7,9,11-tetraene]
23 | 316 nM | 2.51 nM | FC(F)(F)c1n[nH]c(-c2nc3ncc(C4CCOC4)cn3c2-c2cnc[nH]2)n1 (centres unmarked) [Example 66, 5-[3-(1H-imidazol-5-yl)-6-(oxolan-3-yl)imidazo[1,2-a]pyrimidin-2-yl]-3-(trifluoromethyl)-1H-1,2,4-triazole]

Row | Compound | IC50 (CGAS) | IC50 (human CGAS (157-522))
24 | FC(F)(F)c1n[nH]c(-c2nc3ncc(CC4CCCCC4)cn3c2-c2cnc[nH]2)n1 [Example 15, 5-[6-(cyclohexylmethyl)-3-(1H-imidazol-5-yl)imidazo[1,2-a]pyrimidin-2-yl]-3-(trifluoromethyl)-1H-1,2,4-triazole, trifluoroacetic acid salt] | > 31600 nM | 10 nM
25 | O=C(CCCOP(=O)(O)O)OCn1cnc(-c2c(-c3nc(C(F)(F)F)nn3COC(=O)CCCOP(=O)(O)O)nc3ncccn23)c1 [Example 30, {4-oxo-4-[(5-{3-[1-({[4-(phosphonooxy)butanoyl]oxy}methyl)-1H-imidazol-4-yl]imidazo[1,2-a]pyrimidin-2-yl}-3-(trifluoromethyl)-1H-1,2,4-triazol-1-yl)methoxy]butoxy}phosphonic acid, trifluoroacetic acid salt] | 1260 nM | 316 nM
